# Measurements: patent US20060252807A1, “Novel ortho-terphenyl inhibitors of p38 kinase and methods of treating inflammatory disorders” (Kalypsys, Inc., priority 2005, published 2006)
# Target: T1, active p38 alpha enzyme (Upstate Biotechnology) (Homo sapiens, UniProt Q16539)
# T1 construct: purchased Upstate Biotechnology
# Experiment: p38α biochemical assay (ATP turnover, luminescent detection, Cambrex PKlight)
# Conditions: p38α kinase; Table 1 Biological Activity
# Method in brief: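 Luminescent ATP-depletion readout measures total ATP turnover by p38α phosphorylating whole MapkapK2 protein. ATP 1.4 uM final; 30C, 2 h. Compounds delivered from DMSO.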
# T1 sequence (Q16539 whole entry): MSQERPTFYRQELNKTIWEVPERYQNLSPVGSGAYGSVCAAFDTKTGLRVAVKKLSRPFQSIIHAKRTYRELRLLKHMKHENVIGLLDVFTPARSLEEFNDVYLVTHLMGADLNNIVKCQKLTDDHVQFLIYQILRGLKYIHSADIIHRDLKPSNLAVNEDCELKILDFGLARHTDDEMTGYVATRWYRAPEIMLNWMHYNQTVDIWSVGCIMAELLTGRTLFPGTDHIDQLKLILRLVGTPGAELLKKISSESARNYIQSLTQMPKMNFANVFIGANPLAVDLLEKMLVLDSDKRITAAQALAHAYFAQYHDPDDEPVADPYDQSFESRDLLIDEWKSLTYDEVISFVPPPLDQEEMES
row,Structure (SMILES),IC50 [µM]
1,Cc1nc(-c2ccc(F)cc2)c(-c2nc(C(=O)NCCN3CCCC3)cs2)s1 [Example 1748],≤ 1
2,CCN(CC)CCNC(=O)c1csc(-c2sc(C)nc2-c2ccc(F)cc2)n1 [Example 1750],≤ 1
3,Cc1cccc(CNC(=O)c2csc(-c3sc(C)nc3-c3ccc(F)cc3)n2)c1 [Example 1751],≤ 1
4,Cc1nc(-c2ccc(F)cc2)c(-c2nc(C(=O)N[C@@H](C)c3ccccc3)cs2)s1 [Example 1752],≤ 1
5,Cc1nc(-c2ccc(F)cc2)c(-c2nc(C(=O)NCCc3ccccc3)cs2)s1 [Example 1754],≤ 1
6,Cc1nc(-c2ccc(F)cc2)c(-c2nc(C(=O)NCc3ccccc3C)cs2)s1 [Example 1755],≤ 1
7,Cc1ccc(CNC(=O)c2csc(-c3sc(C)nc3-c3ccc(F)cc3)n2)cc1 [Example 1756],≤ 1
8,Cc1nc(-c2ccc(F)cc2)c(-c2nc(C(=O)NCc3ccc(F)cc3)cs2)s1 [Example 1759],≤ 1
9,Cc1nc(-c2ccc(F)cc2)c(-c2nc(C(=O)NCc3ccccc3F)cs2)s1 [Example 1760],≤ 1
10,Cc1nc(-c2ccc(F)cc2)c(-c2nc(C(=O)NCCCn3ccnc3)cs2)s1 [Example 1761],≤ 1
11,CCOC(=O)CC(C)NC(=O)c1csc(-c2sc(C)nc2-c2ccc(F)cc2)n1 (stereo not drawn) [Example 1766],≤ 1
12,Cc1nc(-c2ccc(F)cc2)c(-c2nc(C(=O)NC3CCc4ccccc43)cs2)s1 (stereo not drawn) [Example 1767],> 1
13,Cc1ccc([C@H](C)NC(=O)c2csc(-c3sc(C)nc3-c3ccc(F)cc3)n2)cc1 [Example 1770],> 1
14,Cc1ccc([C@@H](C)NC(=O)c2csc(-c3sc(C)nc3-c3ccc(F)cc3)n2)cc1 [Example 1771],> 1
15,Cc1nc(-c2ccc(F)cc2)c(-c2nc(C(=O)NCCCc3ccccc3)cs2)s1 [Example 1774],> 1
16,Cc1nc(-c2ccc(F)cc2)c(-c2nc(C(=O)NC(C)Cc3ccncc3)cs2)s1 (stereo not drawn) [Example 1776],> 1
17,Cc1nc(-c2ccc(F)cc2)c(-c2nc(C(=O)NCCc3ccc(O)cc3)cs2)s1 [Example 1777],≤ 1
18,Cc1nc(-c2ccc(F)cc2)c(-c2nc(C(=O)NCCOc3ccccc3)cs2)s1 [Example 1778],≤ 1
19,COc1ccc(CNC(=O)c2csc(-c3sc(C)nc3-c3ccc(F)cc3)n2)cc1 [Example 1780],≤ 1

row,Structure (SMILES),IC50 [µM]
1,Cc1nc(-c2ccc(F)cc2)c(-c2nc(C(=O)NCCc3ccc(F)cc3)cs2)s1 [Example 1782],> 1
2,Cc1nc(-c2ccc(F)cc2)c(-c2nc(C(=O)NCCc3ccccc3F)cs2)s1 [Example 1783],≤ 1
3,Cc1nc(-c2ccc(F)cc2)c(-c2nc(C(=O)NCCc3cccc(F)c3)cs2)s1 [Example 1784],≤ 1
4,Cc1nc(-c2ccc(F)cc2)c(-c2nc(C(=O)NCc3ccc(F)cc3F)cs2)s1 [Example 1789],≤ 1
5,Cc1nc(-c2ccc(F)cc2)c(-c2nc(C(=O)NCc3ccc(F)c(F)c3)cs2)s1 [Example 1790],≤ 1
6,Cc1nc(-c2ccc(F)cc2)c(-c2nc(C(=O)NCc3cc(F)cc(F)c3)cs2)s1 [Example 1791],≤ 1
7,Cc1nc(-c2ccc(F)cc2)c(-c2nc(C(=O)NCCCN3CCOCC3)cs2)s1 [Example 1792],≤ 1
8,Cc1nc(-c2ccc(F)cc2)c(-c2nc(C(=O)NCCN(C(C)C)C(C)C)cs2)s1 [Example 1793],> 1
9,Cc1nc(-c2ccc(F)cc2)c(-c2nc(C(=O)NCc3ccc4c(c3)OCO4)cs2)s1 [Example 1796],≤ 1
10,Cc1nc(-c2ccc(F)cc2)c(-c2nc(C(=O)N[C@H](CO)Cc3ccccc3)cs2)s1 [Example 1798],≤ 1
11,COc1ccc(CCNC(=O)c2csc(-c3sc(C)nc3-c3ccc(F)cc3)n2)cc1 [Example 1799],≤ 1
12,Cc1nc(-c2ccc(F)cc2)c(-c2nc(C(=O)NCCc3c[nH]c4ccccc34)cs2)s1 [Example 1809],≤ 1
13,Cc1nc(-c2ccc(F)cc2)c(-c2nc(C(=O)NCc3ccc(C(C)(C)C)cc3)cs2)s1 [Example 1810],> 1
14,Cc1nc(-c2ccc(F)cc2)c(-c2nc(C(=O)NCCCN(C)c3ccccc3)cs2)s1 [Example 1811],≤ 1
15,Cc1nc(-c2ccc(F)cc2)c(-c2nc(C(=O)NCC3(O)CCCCC3)cs2)s1 [Example 1812],≤ 1
16,Cc1nc(-c2ccc(F)cc2)c(-c2nc(C(=O)NCC(=O)c3ccccc3)cs2)s1 [Example 1815],> 1
17,CCOC(=O)N1CCC(NC(=O)c2csc(-c3sc(C)nc3-c3ccc(F)cc3)n2)CC1 [Example 1816],> 1
18,Cc1nc(-c2ccc(F)cc2)c(-c2nc(C(=O)NCc3ccc(Cl)c(Cl)c3)cs2)s1 [Example 1820],≤ 1

# Second part, the compound after the results:
row,IC50 [µM],Structure (SMILES)
1,≤ 1,Cc1nc(-c2ccc(F)cc2)c(-c2nc(C(=O)NCC3CCCCC3)cs2)s1 [Example 1745]
2,≤ 1,Cc1nc(-c2ccc(F)cc2)c(-c2nc(C(=O)NC3CCCCCC3)cs2)s1 [Example 1746]
3,≤ 1,Cc1nc(-c2ccc(F)cc2)c(-c2nc(C(=O)NC3CCCCC3C)cs2)s1 (stereo not drawn) [Example 1747]
4,> 1,Cc1nc(-c2ccc(F)cc2)c(-c2nc(C(=O)NN3CCN(C)CC3)cs2)s1 [Example 1749]
5,≤ 1,Cc1nc(-c2ccc(F)cc2)c(-c2nc(C(=O)N[C@H](C)c3ccccc3)cs2)s1 [Example 1753]
6,≤ 1,Cc1cnc(CNC(=O)c2csc(-c3sc(C)nc3-c3ccc(F)cc3)n2)cn1 [Example 1757]
7,≤ 1,Cc1nc(-c2ccc(F)cc2)c(-c2nc(C(=O)NCc3cccc(F)c3)cs2)s1 [Example 1758]
8,> 1,Cc1nc(-c2ccc(F)cc2)c(-c2nc(C(=O)NCCC3CCCN3C)cs2)s1 (stereo not drawn) [Example 1762]
9,> 1,Cc1nc(-c2ccc(F)cc2)c(-c2nc(C(=O)NCCN3CCCCC3)cs2)s1 [Example 1763]
10,> 1,Cc1nc(-c2ccc(F)cc2)c(-c2nc(C(=O)NC(C)CCCC(C)C)cs2)s1 (stereo not drawn) [Example 1764]
11,> 1,Cc1nc(-c2ccc(F)cc2)c(-c2nc(C(=O)NCCN3CCOCC3)cs2)s1 [Example 1765]
12,> 1,Cc1ccc(CCNC(=O)c2csc(-c3sc(C)nc3-c3ccc(F)cc3)n2)cc1 [Example 1768]
13,> 1,Cc1ccc(C)c(CNC(=O)c2csc(-c3sc(C)nc3-c3ccc(F)cc3)n2)c1 [Example 1769]
14,≤ 1,Cc1nc(-c2ccc(F)cc2)c(-c2nc(C(=O)NCC(C)c3ccccc3)cs2)s1 (stereo not drawn) [Example 1772]
15,> 1,Cc1nc(-c2ccc(F)cc2)c(-c2nc(C(=O)NCC(C)c3ccccc3)cs2)s1 (stereo not drawn) [Example 1773]
16,≤ 1,Cc1nc(-c2ccc(F)cc2)c(-c2nc(C(=O)NCc3ccc(C)c(C)c3)cs2)s1 [Example 1775]
17,≤ 1,COc1ccccc1CNC(=O)c1csc(-c2sc(C)nc2-c2ccc(F)cc2)n1 [Example 1779]
18,≤ 1,COc1cccc(CNC(=O)c2csc(-c3sc(C)nc3-c3ccc(F)cc3)n2)c1 [Example 1781]
19,≤ 1,Cc1nc(-c2ccc(F)cc2)c(-c2nc(C(=O)NCc3cccc(Cl)c3)cs2)s1 [Example 1785]
20,≤ 1,Cc1nc(-c2ccc(F)cc2)c(-c2nc(C(=O)NCc3ccccc3Cl)cs2)s1 [Example 1786]
21,≤ 1,Cc1nc(-c2ccc(F)cc2)c(-c2nc(C(=O)NCc3ccc(Cl)cc3)cs2)s1 [Example 1787]

row,IC50 [µM],Structure (SMILES)
1,≤ 1,Cc1nc(-c2ccc(F)cc2)c(-c2nc(C(=O)NCCCN3CCCC3=O)cs2)s1 [Example 1788]
2,> 1,Cc1nc(-c2ccc(F)cc2)c(-c2nc(C(=O)NC(C)CCc3ccccc3)cs2)s1 (stereo not drawn) [Example 1794]
3,> 1,Cc1nc(-c2ccc(F)cc2)c(-c2nc(C(=O)NCc3ccc(C(C)C)cc3)cs2)s1 [Example 1795]
4,≤ 1,COc1cccc(CCNC(=O)c2csc(-c3sc(C)nc3-c3ccc(F)cc3)n2)c1 [Example 1797]
5,≤ 1,COc1ccccc1CCNC(=O)c1csc(-c2sc(C)nc2-c2ccc(F)cc2)n1 [Example 1800]
6,≤ 1,CCOc1ccccc1CNC(=O)c1csc(-c2sc(C)nc2-c2ccc(F)cc2)n1 [Example 1801]
7,≤ 1,Cc1nc(-c2ccc(F)cc2)c(-c2nc(C(=O)NCCc3ccccc3Cl)cs2)s1 [Example 1802]
8,≤ 1,Cc1nc(-c2ccc(F)cc2)c(-c2nc(C(=O)NCCc3ccc(Cl)cc3)cs2)s1 [Example 1803]
9,≤ 1,Cc1nc(-c2ccc(F)cc2)c(-c2nc(C(=O)NCCc3cccc(Cl)c3)cs2)s1 [Example 1804]
10,> 1,Cc1nc(-c2ccc(F)cc2)c(-c2nc(C(=O)NC3CC(C)(C)NC(C)(C)C3)cs2)s1 [Example 1805]
11,> 1,CCN(CC)CCCC(C)NC(=O)c1csc(-c2sc(C)nc2-c2ccc(F)cc2)n1 (stereo not drawn) [Example 1806]
12,≤ 1,Cc1nc(-c2ccc(F)cc2)c(-c2nc(C(=O)NCc3ccc(F)c(Cl)c3)cs2)s1 [Example 1807]
13,≤ 1,Cc1nc(-c2ccc(F)cc2)c(-c2nc(C(=O)NCCNC(=O)OC(C)(C)C)cs2)s1 [Example 1808]
14,≤ 1,COc1cc(CNC(=O)c2csc(-c3sc(C)nc3-c3ccc(F)cc3)n2)cc(OC)c1 [Example 1813]
15,≤ 1,COc1ccc(CNC(=O)c2csc(-c3sc(C)nc3-c3ccc(F)cc3)n2)cc1OC [Example 1814]
16,≤ 1,Cc1nc(-c2ccc(F)cc2)c(-c2nc(C(=O)NCCCNC(=O)OC(C)(C)C)cs2)s1 [Example 1817]
17,≤ 1,Cc1nc(-c2ccc(F)cc2)c(-c2nc(C(=O)NCc3ccc(C(F)(F)F)cc3)cs2)s1 [Example 1818]
18,≤ 1,Cc1nc(-c2ccc(F)cc2)c(-c2nc(C(=O)NCc3cccc(C(F)(F)F)c3)cs2)s1 [Example 1819]
19,≤ 1,Cc1nc(-c2ccc(F)cc2)c(-c2nc(C(=O)NCc3ccc(Cl)cc3Cl)cs2)s1 [Example 1821]
20,≤ 1,Cc1nc(-c2ccc(F)cc2)c(-c2nc(C(=O)NC3CCN(Cc4ccccc4)C3)cs2)s1 (stereo not drawn) [Example 1822]
